Legend:
[1] = target: Dual 3',5'-cyclic-AMP and -GMP phosphodiesterase 11A (Homo sapiens, UniProt Q9HCR9); assay: Caliper Mobility-Shift Assay: To a 96-well plate, 20 μL of 10 μM FL-cGMP as the substrate was added; then 1 μL solution of the compound in DMSO or DMSO solution without compound was added; and then 29 μL of 0.28 ng/μL PDE-11 enzyme buffer (100 mM Hepes pH 7.5, 5 mM MgCl2, 0.002% Brij-35) was added. The maximum final concentration of the compound was 10 μM. The plate was incubated at 30° C. for 1 h, and 20 μL of 70 μM EDTA was then added to stop the reaction. 26 μL of solution of each well was transferred to a 384-well plate.
[2] = target: cGMP-specific 3',5'-cyclic phosphodiesterase (Homo sapiens, UniProt O76074); assay: The maximum final concentration of the compound was 10 μM. The plate was incubated at 30° C. for 1 h, and 20 μL of 70 μM EDTA was then added to stop the reaction. 26 μL of solution of each well was transferred to a 384-well plate.

Chain of Dual 3',5'-cyclic-AMP and -GMP phosphodiesterase 11A (Q9HCR9 whole entry): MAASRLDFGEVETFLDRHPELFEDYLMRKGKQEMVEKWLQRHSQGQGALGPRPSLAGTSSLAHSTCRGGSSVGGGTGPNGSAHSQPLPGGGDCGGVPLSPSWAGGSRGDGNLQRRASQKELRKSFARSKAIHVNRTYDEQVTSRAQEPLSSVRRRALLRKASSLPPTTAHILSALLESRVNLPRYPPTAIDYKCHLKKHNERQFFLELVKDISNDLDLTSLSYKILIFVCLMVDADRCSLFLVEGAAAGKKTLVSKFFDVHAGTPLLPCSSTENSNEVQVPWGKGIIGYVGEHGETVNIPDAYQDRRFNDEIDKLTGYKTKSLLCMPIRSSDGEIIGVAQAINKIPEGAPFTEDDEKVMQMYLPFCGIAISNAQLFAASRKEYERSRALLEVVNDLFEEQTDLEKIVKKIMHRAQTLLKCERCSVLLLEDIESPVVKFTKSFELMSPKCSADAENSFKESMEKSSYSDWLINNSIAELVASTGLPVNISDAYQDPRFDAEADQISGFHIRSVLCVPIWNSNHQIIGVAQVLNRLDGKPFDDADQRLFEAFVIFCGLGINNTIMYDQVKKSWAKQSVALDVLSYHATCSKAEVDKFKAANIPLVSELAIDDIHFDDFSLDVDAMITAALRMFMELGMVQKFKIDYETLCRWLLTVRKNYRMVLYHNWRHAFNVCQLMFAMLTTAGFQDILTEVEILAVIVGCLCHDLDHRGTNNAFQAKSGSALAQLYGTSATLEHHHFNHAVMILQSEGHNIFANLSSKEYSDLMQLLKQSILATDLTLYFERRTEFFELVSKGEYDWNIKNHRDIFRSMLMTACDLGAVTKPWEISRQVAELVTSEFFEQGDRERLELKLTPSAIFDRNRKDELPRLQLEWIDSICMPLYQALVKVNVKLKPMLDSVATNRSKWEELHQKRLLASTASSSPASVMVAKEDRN

IC50 [1]: > 10000 nM | IC50 [2]: 2.12 nM
SMILES: COc1ccc(CNc2nc(N3CC4CC4C3)ncc2C(=O)NCc2ccccn2)cc1Cl (configuration not stated)

Source: ChEMBL document CHEMBL3886774, “Bicyclic substituted pyrimidine compounds” (2016)
